According to US8378104B2 (OSI Pharmaceuticals, LLC, priority 2010, dated 2013):
pIC50: −log10 of the molar value. Counter-ions that a name gives are not always drawn.

Molecular target: T1, TAK1-TAB1 fusion protein (Homo sapiens, UniProt O43318)
T1 construct: purchased Carna
T1 sequence (O43318 with tags, fused parts or gaps limits assumed): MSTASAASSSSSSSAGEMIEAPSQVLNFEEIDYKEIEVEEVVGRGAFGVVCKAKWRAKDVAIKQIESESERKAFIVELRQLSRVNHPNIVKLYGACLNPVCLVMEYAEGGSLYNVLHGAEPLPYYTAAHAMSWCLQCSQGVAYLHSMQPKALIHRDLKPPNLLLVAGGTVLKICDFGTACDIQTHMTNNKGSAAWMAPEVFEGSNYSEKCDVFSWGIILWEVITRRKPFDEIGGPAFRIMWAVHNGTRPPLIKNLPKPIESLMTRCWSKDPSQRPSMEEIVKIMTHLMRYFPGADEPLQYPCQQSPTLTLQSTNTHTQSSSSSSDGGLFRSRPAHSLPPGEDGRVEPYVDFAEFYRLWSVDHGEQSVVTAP
Test: TAK1 biochemical assay (AlphaScreen, GST-MAP2K7 substrate)
Details: TAK1-TAB1 fusion protein, GST-MAP2K7 substrate; read-out: mean TAK1 IC50 (Col. A)

COC(=O)c1cc(-c2cnc(N)c3oc(-c4csc5cnccc45)cc23)cs1 [Example 378, 4-(7-amino-2-thieno[2,3-c]pyridin-3-yl-furo[2,3-c]pyridin-4-yl)-thiophene-2-carboxylic acid methyl ester]
pIC50: < 5.00

Nc1ncc(-c2cc(C(=O)O)cs2)c2cc(-c3csc4cnccc34)oc12 [Example 379, 5-(7-amino-2-thieno[2,3-c]pyridin-3-yl-furo[2,3-c]pyridin-4-yl)-thiophene-3-carboxylic acid]
pIC50: 5.00 to 6.00

COC(=O)c1csc(-c2cnc(N)c3oc(-c4csc5cnccc45)cc23)c1 [Example 380, 5-(7-amino-2-thieno[2,3-c]pyridin-3-yl-furo[2,3-c]pyridin-4-yl)-thiophene-3-carboxylic acid methyl ester]
pIC50: 5.00 to 6.00

Nc1ncc(-c2ccc(C(=O)O)s2)c2cc(-c3csc4cnccc34)oc12 [Example 381, 5-(7-amino-2-thieno[2,3-c]pyridin-3-yl-furo[2,3-c]pyridin-4-yl)-thiophene-2-carboxylic acid]
pIC50: 5.00 to 6.00

COC(=O)c1ccc(-c2cnc(N)c3oc(-c4csc5cnccc45)cc23)s1 [Example 382, 5-(7-amino-2-thieno[2,3-c]pyridin-3-yl-furo[2,3-c]pyridin-4-yl)-thiophene-2-carboxylic acid methyl ester]
pIC50: < 5.00

N#Cc1ccsc1-c1cnc(N)c2oc(-c3csc4cnccc34)cc12 [Example 383, 2-(7-amino-2-thieno[2,3-c]pyridin-3-yl-furo[2,3-c]pyridin-4-yl)-thiophene-3-carbonitrile]
pIC50: < 5.00

N#Cc1sccc1-c1cnc(N)c2oc(-c3csc4cnccc34)cc12 [Example 384]
pIC50: < 5.00

Nc1ncc(-c2ccc(-c3ccccc3)s2)c2cc(-c3csc4cnccc34)oc12 [Example 385, 4-(5-phenyl-thiophen-2-yl)-2-thieno[2,3-c]pyridin-3-yl-furo[2,3-c]pyridin-7-ylamine]
pIC50: < 5.00

Cc1ccc(-c2cnc(N)c3oc(-c4csc5cnccc45)cc23)s1 [Example 386, 4-(5-methyl-thiophen-2-yl)-2-thieno[2,3-c]pyridin-3-yl-furo[2,3-c]pyridin-7-ylamine]
pIC50: 5.00 to 6.00

Cc1ccc(-c2cnc(N)c3oc(-c4csc5cnccc45)cc23)o1 [Example 387, 4-(5-methylfuran-2-yl)-2-(thieno[2,3-c]pyridin-3-yl)furo[2,3-c[pyridin-7-amine trifluoroacetate]
pIC50: 5.00 to 6.00

Cn1ccc(-c2cnc(N)c3oc(-c4csc5cnccc45)cc23)c1 [Example 389, 4-(1-methyl-1H-pyrrol-3-yl)-2-(thieno[2,3-c]pyridin-3-yl)furo[2,3-c]pyridin-7-amine trifluoroacetate]
pIC50: 5.00 to 6.00

Cc1nc(-c2cnc(N)c3oc(-c4csc5cnccc45)cc23)cs1 [Example 390, 4-(2-methyl-1,3-thiazol-4-yl)-2-(thieno[2,3-c]pyridin-3-yl)furo[2,3-c]pyridin-7-amine trifluoroacetate]
pIC50: 5.00 to 6.00

Nc1ncc(-c2ccsc2)c2cc(-c3csc4cnccc34)oc12 [Example 391, 2-(thieno[2,3-c]pyridin-3-yl)-4-(thiophen-3-yl)furo[2,3-c]pyridin-7-amine trifluoroacetate]
pIC50: 5.00 to 6.00

Cc1cc(-c2cnc(N)c3oc(-c4csc5cnccc45)cc23)cs1 [Example 393, 4-(5-methylthiophen-3-yl)-2-(thieno[2,3-c]pyridin-3-yl)furo[2,3-c]pyridin-7-amine trifluoroacetate]
pIC50: 5.00 to 6.00

Cc1nc(C)c(-c2cnc(N)c3oc(-c4csc5cnccc45)cc23)s1 [Example 394, 4-(2,4-dimethyl-thiazol-5-yl)-2-thieno[2,3-c]pyridin-3-yl-furo[2,3-c]pyridin-7-ylamine]
pIC50: 5.00 to 6.00

Cn1cnc(-c2cnc(N)c3oc(-c4csc5cnccc45)cc23)c1 [Example 395, 4-(1-methyl-1H-imidazol-4-yl)-2-thieno[2,3-c]pyridin-3-yl-furo[2,3-c]pyridin-7-ylamine]
pIC50: < 5.00

Nc1ncc(-c2cscn2)c2cc(-c3csc4cnccc34)oc12 [Example 396, 4-thiazol-4-yl-2-thieno[2,3-c]pyridin-3-yl-furo[2,3-c]pyridin-7-ylamine]
pIC50: 5.00 to 6.00

Cc1ncc(-c2cnc(N)c3oc(-c4csc5cnccc45)cc23)n1C [Example 397, 4-(2,3-dimethyl-3H-imidazol-4-yl)-2-thieno[2,3-c]pyridin-3-yl-furo[2,3-c]pyridin-7-ylamine]
pIC50: 5.00 to 6.00

COC(=O)c1cc(-c2cnc(N)c3oc(-c4csc5cnccc45)cc23)cn1C [Example 398, 4-(7-amino-2-thieno[2,3-c]pyridin-3-yl-furo[2,3-c]pyridin-4-yl)-1-methyl-1H-pyrrole-2-carboxylic acid methyl ester]
pIC50: 5.00 to 6.00

Nc1ncc(-c2cnn(C3CCNCC3)c2)c2c(Cl)c(-c3ccc4[nH]ncc4c3)oc12 [Example 399, 3-chloro-2-(1H-indazol-5-yl)-4-[1-(piperidin-4-yl)-1H-pyrazol-4-yl]furo[2,3-c]pyridin-7-amine hydrochloride]
pIC50: 5.00 to 6.00

Nc1ncc(-c2cnn([C@H]3CC[C@H](O)CC3)c2)c2cc(-c3cc(C(F)(F)F)cc(C(F)(F)F)c3)oc12 [Example 401, trans-4-(4-{7-amino-2-[3,5-bis(trifluoromethyl)phenyl]furo[2,3-d]pyridin-4-yl}-1H-pyrazol-1-yl)cyclohexanol]
pIC50: < 5.00

Nc1ncc(-c2cnn([C@H]3CC[C@H](O)CC3)c2)c2cc(-c3ccc4c(c3)C(=O)NC4)oc12 [Example 403, 6-{7-amino-4-[1-(trans-4-hydroxycyclohexyl)-1H-pyrazol-4-yl]furo[2,3-c]pyridin-2-yl}-2,3-dihydro-1H-isoindol-1-one]
pIC50: 6.00 to 7.00

Nc1ncc(-c2cnn([C@H]3CC[C@H](O)CC3)c2)c2cc(-c3ccc4c(c3)CNC4=O)oc12 [Example 404, 5-{7-amino-4-[1-(trans-4-hydroxycyclohexyl)-1H-pyrazol-4-yl]furo[2,3-c]pyridin-2-yl}-2,3-dihydro-1H-isoindol-1-one]
pIC50: 5.00 to 6.00

Nc1ncc(-c2cnn([C@H]3CC[C@H](O)CC3)c2)c2cc(-c3ccc4c(c3)CC(=O)N4)oc12 [Example 405, 5-{7-amino-4-[1-(trans-4-hydroxycyclohexyl)-1H-pyrazol-4-yl]furo[2,3-c]pyridin-2-yl}-1,3-dihydro-2H-indol-2-one]
pIC50: 5.00 to 6.00

Nc1ncc(-c2cnn([C@H]3CC[C@H](O)CC3)c2)c2cc(-c3ccc4cn[nH]c4c3)oc12 [Example 406, trans-4-{4-[7-amino-2-(1H-indazol-6-yl)furo[2,3-c]pyridin-4-yl]-1H-pyrazol-1-yl}cyclohexanol]
pIC50: 6.00 to 7.00

N#Cc1cc(-c2cc3c(-c4cnn([C@H]5CC[C@H](O)CC5)c4)cnc(N)c3o2)ccc1N [Example 407, 2-amino-5-{7-amino-4-[1-(trans-4-hydroxycyclohexyl)-1H-pyrazol-4-yl]furo[2,3-c]pyridin-2-yl}benzonitrile]
pIC50: 6.00 to 7.00

CC(=O)N1CCC(n2cc(-c3cnc(N)c4oc(C5=CCC6(CC5)OCCO6)cc34)cn2)CC1 [Example 408, 1-(4-{4-[7-amino-2-(1,4-dioxaspiro[4.5]dec-7-en-8-yl)furo[2,3-c]pyridin-4-yl]-1H-pyrazol-1-yl}piperidin-1-yl)ethanone]
pIC50: < 5.00
